Results as given in article PMC8266241, “Tetralone derivatives are MIF tautomerase inhibitors and attenuate macrophage activation and amplify the hypothermic response in endotoxemic mice” (Journal of Enzyme Inhibition and Medicinal Chemistry, 2021).
Like-named read-outs stand apart in the source and are kept apart here.

Columns and labels:
recombinant human MIF [1] = target: T1, recombinant human MIF (Homo sapiens, UniProt P14174); assay: Tautomerase assay: enol-keto tautomeric conversion of phenylpyruvate (ketonase reaction); assay type: biochemical; conditions: for IC50: enol-keto conversion of phenylpyruvate, 100 µM substrate, pH 6.5, read-out: Inhibition of ketonase (IC50); for IC50enolase/IC50ketonase: selectivity for ketonase
T1 construct: purchased ATGen Co. Ltd., Seoul, Republic of Korea
T1 sequence (P14174 2-115 limits assumed): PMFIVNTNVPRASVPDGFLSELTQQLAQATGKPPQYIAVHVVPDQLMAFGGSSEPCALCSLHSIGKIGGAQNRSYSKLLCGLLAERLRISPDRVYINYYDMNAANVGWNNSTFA
Protocol: The enol-keto tautomeric conversion of phenylpyruvate (ketonase reaction) was assessed at room temperature by monitoring the decrease in absorbance at 288 nm on a dual path Shimadzu 2100 UV spectrophotometer (Shimadzu, Kyoto, Japan) according to Taylor et al.[55] with minor modifications. Briefly, the 0.72 ml reaction mixture consisted of the enzyme at a final concentration of 0.4 µg/ml and the substrate in a 50 mM sodium phosphate buffer (pH = 6.5). The phenylpyruvate substrate was dissolved fresh in absolute ethanol to yield a final concentration of 100 µM. The reaction was monitored for 75 s at room temperature. A recombinant human MIF (from ATGen Co. Ltd., Seoul, Republic of Korea) was used as the enzyme source. Inhibitors were dissolved fresh in ethanol or DMSO. […] The compounds were diluted to achieve final concentrations of 200, 100, 50, 20, 5, 1, and 0.5 µM in the reaction mixture. All data presented have been derived from consonant measurements repeated at least three times. […] The areas under the curves obtained with and without the inhibitors were used to compare the conversion rates of the substrate.

recombinant human MIF [2] = target: T1, recombinant human MIF; assay: Tautomerase assay: keto-enol tautomeric conversion of phenylpyruvate (enolase activity); assay type: biochemical; conditions: for IC50: keto-enol conversion of phenylpyruvate, read-out: Inhibition of enolase (IC50)
RAW264.7 cells [3] = assay: Nitrite production in LPS-induced macrophages (Griess reagent); assay type: cell-based, mouse; conditions: 20 µM pre-treatment, 1 µg/ml LPS 24 h; for lower nitrite concentrations: vs LPS-activated cells
Protocol: (§1) In cell culture experiments, we used RAW264.7 mouse monocyte/macrophage cell line (ECACC, Salisbury, UK; passage number: 8–15) and RAW-Blue™ cells (Invivogen, Toulouse France, passage number: 10–14). RAW264.7 and RAW-Blue™ cells were cultured in 5% CO2 at 37 °C in endotoxin-tested Dulbecco’s Modified Eagle’s Medium (high glucose, 4.5 g/L, 2 mM L-glutamine; Corning, Corning Incorporated Costar, Corning, NY) supplemented with 10% FBS. For culturing RAW-Blue™ cells, we also added 100 µg/ml normocin and 200 µg/ml zeocin to the medium. The day before the experiments, cells were plated onto 24- or 96-well plates and cultured overnight. […] The freshly synthesised tetralone derivatives were dissolved in DMSO and applied in 20 µM concentration as a pre-treatment, added 30 min before LPS induction. To exclude the effects of vehicle, both CTRL and LPS-treated cells received the same amount of DMSO.
For nitrite measurements, we applied the same culturing conditions, treatments, and equipment as described above. After 24 h of incubation, 50 µl medium was removed and added to equal amount of Griess reagent (Sigma-Aldrich, St. Louis, MO, USA) in 96-well plate. The optical density was measured at 550 nm wavelength.

[4] = test system: NF-κB activation in RAW-Blue™ cells; assay: NF-κB activation reporter assay (QUANTI-Blue); assay type: cell-based, mouse; conditions: 20 µM pre-treatment, 1 µg/ml LPS 24 h, vs LPS-activated cells
Protocol: as §1
The detection of NF-κB activation was accomplished by using RAW-Blue™ cells. RAW-Blue™ cells are genetically modified RAW264.7 macrophages, which are able to secrete embryonic alkaline phosphatase (EAP) upon LPS induction and following NF-κB activation. The levels of EAP can be examined using QUANTI-Blue™ detection medium.
RAW-Blue™ cells were seeded into 96-well plate at a density of 10^5cells/well. Cells were treated with tetralones (pre-treatment, 20 µM) and with 1 µg/ml LPS. 24 h after LPS treatment 20 µl medium was removed and incubated with 100 µl QUANTI-Blue™ detection medium (Invivogen; Toulouse, France) in 96-well plates. The optical density was measured at 600 nm.

RAW264.7 cells [5] = assay: ROS production in LPS-induced macrophages (DHR123); assay type: cell-based, mouse; conditions: 20 µM pre-treatment, 1 µg/ml LPS 24 h; for decrease in ROS concentrations: vs LPS-activated cells
Protocol: as §1
To measure the amount of reactive oxygen species we seeded RAW264.7 cells onto 96-well plates in a density of 10^5cells/well. Cells were treated with the tetralones as a pre-treatment and they were induced with 1 µg/ml LPS for 24 h. Then 2 µM dihydrorhodamine123 (DHR123; Life Technologies, Carlsbad, CA) fluorescent dye was added and incubated for an additional 2 h. Fluorescent intensity of the dye (excitation 490 nm/emission 510–570 nm) was measured with Glomax Multi Detection System (Promega®, Madison, WI, USA).

TNF-α in RAW264.7 cells = assay: TNF-α production, ELISA; assay type: cell-based, mouse; conditions: 20 µM pre-treatment, 1 µg/ml LPS 24 h
Protocol: as §1, with “To exclude the effects of vehicle, both CTRL and LPS-treated cells received the same amount of DMSO.” left out
(§2) For cytokine concentration measurements, RAW264.7 cells were cultured in 24-well plates at a density of 5*10^5 cells/well and treated with tetralones (pre-treatment, 20 µM) and with 1 µg/ml LPS for 24 h. TNF-α, IL-6 and CCL-2 levels were determined from the culturing media by using Ready-Set-Go ELISA kits (eBioscience, San Diego, CA, USA) for TNF-α and IL-6 detection and mouse CCL-2 uncoated ELISA-kit (Invitrogen, Vienna, Austria) for CCL-2 determination. ELISA-kits were applied as provided by the protocol of the manufacturer, the optical density was measured at 450 nm.

IL-6 in RAW264.7 cells = assay: IL-6 production, ELISA; assay type: cell-based, mouse; conditions: 20 µM pre-treatment, 1 µg/ml LPS 24 h
Protocol: as §1, with “To exclude the effects of vehicle, both CTRL and LPS-treated cells received the same amount of DMSO.” left out
as §2

recombinant human MIF [6] = target: T1, recombinant human MIF; set-up: method as in PMID 15778121; conditions: reference inhibitor; read-out: ketonase IC50 of reference inhibitor; cited from earlier work
recombinant human MIF [7] = target: T1, recombinant human MIF; set-up: method as in PMID 15778121; conditions: reference inhibitor; read-out: enolase IC50 of reference inhibitor; cited from earlier work

Compound	IC50 (recombinant human MIF [1])	IC50 (recombinant human MIF [2])	also measured
O=C1/C(=C/c2ccccc2)C[S+]([O-])c2ccccc21 (racemic) [Compound 37]	94.6 ± 25.4 µM	193 ± 59 µM	
Cc1ccc(/C=C2\CCc3ccccc3C2=O)cc1 [Compound 4]	16.5 ± 3.4 µM	2290 ± 343 µM	effect on nitrite production (RAW264.7 cells [3]): could also inhibit nitrite production, but to a lower extent; effect on NF-κB activation [4]: slight, but statistically significant inhibitory effect; effect on ROS level (RAW264.7 cells [5]): failed to modify ROS level
COc1ccc(/C=C2\CCc3ccccc3C2=O)cc1 [Compound 5]	57 ± 14.1 µM	33.4 ± 8.8 µM	
O=C1/C(=C/c2ccc(Cl)cc2)CCc2ccccc21 [Compound 6]	59.1 ± 9.7 µM	42.8 ± 3.1 µM	
O=C1/C(=C/c2ccc(Br)cc2)CCc2ccccc21 [Compound 8]	52.2 ± 11.5 µM	232 ± 54 µM	
O=C1/C(=C/c2ccc(F)cc2)CCc2ccccc21 [Compound 10]	72.4 ± 3.4 µM	42.1 ± 4.3 µM	
O=C1/C(=C/c2c(Cl)cccc2Cl)CCc2ccccc21 [Compound 11]	58.9 ± 10.3 µM	35.5 ± 5.9 µM	
O=C1/C(=C/c2ccc(Cl)c(Cl)c2)CCc2ccccc21 [Compound 12]	2620 ± 696 µM	91.5 ± 9 µM	
O=C1/C(=C/c2ccc(Cl)cc2Cl)CCc2ccccc21 [Compound 13]	16.9 ± 4.2 µM	301 ± 42 µM	IC50enolase/IC50ketonase (recombinant human MIF [1]): 18
O=C(O)c1ccc(/C=C2\CCc3ccccc3C2=O)cc1 [Compound 14]	187 ± 32 µM	37.7 ± 16.3 µM	
CN(C)c1ccc(/C=C2\CCc3ccccc3C2=O)cc1 [Compound 15]	90.2 ± 15.1 µM	495 ± 101 µM	
N#Cc1ccc(/C=C2\CCc3ccccc3C2=O)cc1 [Compound 16]	146 ± 17 µM	43.2 ± 12.4 µM	
COc1ccc(/C=C2\CCc3ccccc3C2=O)cc1OC [Compound 17]	585 ± 94 µM	302 ± 63 µM	
O=C1/C(=C/c2ccc3c(c2)OCO3)CCc2ccccc21 [Compound 18]	50.7 ± 6 µM	213 ± 31 µM	
O=C1/C(=C/c2ccco2)CCc2ccccc21 [Compound 19]	57.7 ± 12.6 µM	25.4 ± 4.7 µM	
O=C1/C(=C/c2cccs2)CCc2ccccc21 [Compound 20]	54 ± 5.5 µM	52.3 ± 7.6 µM	
O=C1/C(=C/c2ccc[nH]2)CCc2ccccc21 [Compound 21]	142 ± 31 µM	125 ± 39 µM	
Cn1cccc1C=C1CCc2ccccc2C1=O [Compound 22]	23.8 ± 3.8 µM	27.8 ± 5.6 µM	
O=C1C(=Cc2cccnc2)CCc2ccccc21 [Compound 25]	20.3 ± 5.5 µM	28.6 ± 6 µM	
O=C1/C(=C/c2ccncc2)CCc2ccccc21 [Compound 26]	21 ± 6.9 µM	209 ± 77 µM	IC50enolase/IC50ketonase (recombinant human MIF [1]): 10; lower nitrite concentrations (RAW264.7 cells [3]): ~50%; effect on NF-κB activation [4]: slight, but statistically significant inhibitory effect; effect on TNF-α production (TNF-α in RAW264.7 cells): reduced TNF-α production; decrease in ROS concentrations (RAW264.7 cells [5]): ~20%; effect on IL-6 production (IL-6 in RAW264.7 cells): had the most dominant effect
O=C1/C(=C/c2ccccc2)C(c2ccccc2)Oc2ccccc21 (stereo not shown) [Compound 35]	419 ± 113 µM		
O=C1/C(=C/c2ccccc2)CS(=O)(=O)c2ccccc21 [Compound 38]	160 ± 38 µM	151 ± 27 µM	
O=C(O)/C=C/c1ccc(O)c(O)c1 [caffeic acid]			IC50 (recombinant human MIF [6]): 0.5 µM; IC50 (recombinant human MIF [7]): 2 µM

The next lines start with results.

IC50 (recombinant human MIF [1])	IC50 (recombinant human MIF [2])	Compound	also measured
82.8 ± 16.5 µM	20.2 ± 3.9 µM	O=C1/C(=C/c2ccccc2)Cc2ccccc21 [Compound 1, E-2-phenylmethylene-1-indanone]	
127 ± 20 µM	113 ± 16 µM	O=C1/C(=C/c2ccccc2)CCc2ccccc21 [Compound 2]	
84 ± 15.3 µM	129 ± 19 µM	O=C1/C(=C/c2ccccc2)CCCc2ccccc21 [Compound 3, E-2-phenylmethylene-1-benzosuberone]	
2640 ± 406 µM	458 ± 73 µM	O=C1/C(=C/c2ccccc2Cl)CCc2ccccc21 [Compound 7]	
7340 ± 1020 µM	3350 ± 424 µM	O=C1/C(=C/c2cccc(Br)c2)CCc2ccccc21 [Compound 9]	
58.8 ± 10.6 µM	2.89 ± 0.75 µM	O=C1/C(=C/c2c[nH]c3ccccc23)CCc2ccccc21 [Compound 23]	IC50ketonase/IC50enolase (recombinant human MIF [2]; selectivity for enolase): 20; effect on nitrite production (RAW264.7 cells [3]): could also inhibit nitrite production, but to a lower extent; effect on NF-κB activation [4]: slight, but statistically significant inhibitory effect; effect on ROS level (RAW264.7 cells [5]): induced a slight increase
267 ± 59 µM	1740 ± 483 µM	O=C1/C(=C/c2ccccc2)COc2ccccc21 [Compound 27]	
102 ± 19 µM	3620 ± 829 µM	Cc1ccc(/C=C2\COc3ccccc3C2=O)cc1 [Compound 28]	
56.1 ± 8.8 µM	443 ± 112 µM	Cc1cccc(/C=C2\COc3ccccc3C2=O)c1 [Compound 29]	
96 ± 29.9 µM	425 ± 70 µM	COc1ccc(/C=C2\COc3ccccc3C2=O)cc1 [Compound 30]	
97 ± 20.7 µM	205 ± 32 µM	COc1cccc(/C=C2\COc3ccccc3C2=O)c1 [Compound 31]	
4.31 ± 1.34 µM	1260 ± 159 µM	COc1ccccc1/C=C1\COc2ccccc2C1=O [Compound 32]	lower nitrite concentrations (RAW264.7 cells [3]): ~50%; effect on NF-κB activation [4]: could not show any reducing effect; effect on TNF-α production (TNF-α in RAW264.7 cells): reduced TNF-α production; decrease in ROS concentrations (RAW264.7 cells [5]): ~20%; effect on IL-6 production (IL-6 in RAW264.7 cells): had the most dominant effect
311 ± 77 µM	1890 ± 438 µM	O=C1/C(=C/c2ccc(Br)cc2)COc2ccccc21 [Compound 33]	
98.3 ± 16 µM	3200 ± 887 µM	O=C1/C(=C/c2ccccc2Br)COc2ccccc21 [Compound 34]	
208 ± 42 µM	633 ± 108 µM	O=C1/C(=C\c2ccccc2)CSc2ccccc21 [Compound 36]	
